Laboratory results: the Kinase Knowledgebase extract (Sharma et al. 2016)

Target: PIK3CD (Human) (UniProt O00329)
Test: Assessment of PIK3CD Kinase Activity

PIK3CD (Human), sequence (O00329 whole entry, looked up): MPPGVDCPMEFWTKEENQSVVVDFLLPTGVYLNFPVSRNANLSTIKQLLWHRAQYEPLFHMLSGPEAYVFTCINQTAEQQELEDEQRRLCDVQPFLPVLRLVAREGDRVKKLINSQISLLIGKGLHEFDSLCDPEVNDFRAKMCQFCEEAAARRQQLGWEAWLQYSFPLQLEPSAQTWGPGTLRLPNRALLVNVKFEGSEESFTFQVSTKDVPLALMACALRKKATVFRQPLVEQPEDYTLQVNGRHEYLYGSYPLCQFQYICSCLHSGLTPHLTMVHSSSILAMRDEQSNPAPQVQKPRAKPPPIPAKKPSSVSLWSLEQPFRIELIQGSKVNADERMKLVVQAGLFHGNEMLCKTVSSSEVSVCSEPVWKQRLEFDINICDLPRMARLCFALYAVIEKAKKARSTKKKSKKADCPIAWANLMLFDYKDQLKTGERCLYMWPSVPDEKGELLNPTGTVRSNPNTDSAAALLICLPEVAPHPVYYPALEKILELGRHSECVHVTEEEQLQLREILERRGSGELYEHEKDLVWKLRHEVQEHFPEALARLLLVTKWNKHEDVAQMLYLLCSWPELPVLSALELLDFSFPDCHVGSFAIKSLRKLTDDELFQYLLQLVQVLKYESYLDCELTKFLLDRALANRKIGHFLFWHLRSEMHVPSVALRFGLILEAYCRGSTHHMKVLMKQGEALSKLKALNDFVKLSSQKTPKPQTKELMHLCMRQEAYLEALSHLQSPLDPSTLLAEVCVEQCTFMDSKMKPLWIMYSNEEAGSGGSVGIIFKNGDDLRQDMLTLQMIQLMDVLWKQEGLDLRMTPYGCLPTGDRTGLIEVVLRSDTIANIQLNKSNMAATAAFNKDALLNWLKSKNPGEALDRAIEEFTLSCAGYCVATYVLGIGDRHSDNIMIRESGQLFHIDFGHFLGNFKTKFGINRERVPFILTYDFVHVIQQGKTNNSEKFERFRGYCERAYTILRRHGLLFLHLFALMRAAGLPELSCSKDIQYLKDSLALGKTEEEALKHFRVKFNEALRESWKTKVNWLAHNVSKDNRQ

| SMILES | IC50 |
| --- | --- |
| CN(C1CCN(Cc2cc3nc(-c4cccc5[nH]ncc45)nc(N4CCOCC4)c3s2)CC1)S(C)(=O)=O | ≤ 100 nM |
| CN(C)CC1CCN(Cc2cc3nc(-c4cccc5[nH]ncc45)nc(N4CCOCC4)c3s2)CC1 | ≤ 100 nM |
| CNC(=O)C(C)(C)N1CCN(Cc2cc3nc(-c4cccc5[nH]ncc45)nc(N4CCOCC4)c3s2)CC1 | ≤ 100 nM |
| COCCN(C)C(=O)N1CCN(Cc2cc3nc(-c4cccc5[nH]ccc45)nc(N4CCOCC4)c3s2)CC1 | ≤ 100 nM |
| CN(C)S(=O)(=O)N1CCN(Cc2cc3nc(-c4cccc5[nH]ncc45)nc(N4CCOCC4)c3s2)CC1 | ≤ 100 nM |
| c1cc(-c2nc(N3CCOCC3)c3sc(CN4CCN(Cc5ccncc5)CC4)cc3n2)c2cn[nH]c2c1 | ≤ 100 nM |
| COCC(C)(C)N1CCN(Cc2cc3nc(-c4cccc5[nH]ncc45)nc(N4CCOCC4)c3s2)CC1 | ≤ 100 nM |
| COCCC1CCN(Cc2cc3nc(-c4cccc5[nH]ncc45)nc(N4CCOCC4)c3s2)CC1 | ≤ 100 nM |
| c1ccc(N2CCN(Cc3cc4nc(-c5cccc6[nH]ncc56)nc(N5CCOCC5)c4s3)CC2)nc1 | ≤ 100 nM |
| OCC1CCN(Cc2cc3nc(-c4cccc5[nH]ncc45)nc(N4CCOCC4)c3s2)CC1 | ≤ 100 nM |
| [O-][n+]1ccccc1CN1CCN(Cc2cc3nc(-c4cccc5[nH]ncc45)nc(N4CCOCC4)c3s2)CC1 | ≤ 100 nM |
| CC(C)(O)CN1CCN(Cc2cc3nc(-c4cccc5[nH]ncc45)nc(N4CCOCC4)c3s2)CC1 | ≤ 100 nM |
| OCCN1CCN(Cc2cc3nc(-c4cccc5[nH]ncc45)nc(N4CCOCC4)c3s2)CC1 | ≤ 100 nM |
| COCCN(C)C(=O)C1CCN(Cc2cc3nc(-c4cccc5[nH]ncc45)nc(N4CCOCC4)c3s2)CC1 | ≤ 100 nM |
| COCCN1CCN(Cc2cc3nc(-c4cccc5[nH]ncc45)nc(N4CCOCC4)c3s2)CC1 | ≤ 100 nM |
| CS(=O)(=O)C1CCN(Cc2cc3nc(-c4cccc5[nH]ncc45)nc(N4CCOCC4)c3s2)CC1 | ≤ 100 nM |
| CN(C)CCCS(=O)(=O)N1CCN(Cc2cc3nc(-c4cccc5[nH]ncc45)nc(N4CCOCC4)c3s2)CC1 | ≤ 100 nM |
| c1cc(-c2nc(N3CCOCC3)c3sc(CN4CCN(c5nccs5)CC4)cc3n2)c2cn[nH]c2c1 | ≤ 100 nM |
| c1cc(-c2nc(N3CCOCC3)c3sc(CN4CCN(Cc5nccs5)CC4)cc3n2)c2cn[nH]c2c1 | ≤ 100 nM |
| CN1CCN(Cc2cc3nc(-c4cccc5[nH]ncc45)nc(N4CCOCC4)c3s2)CC1 | ≤ 100 nM |
| CS(=O)(=O)N1CCN(Cc2cc3nc(-c4cccc5[nH]ncc45)nc(N4CCOCC4)c3s2)CC1CO (stereo unspecified) | ≤ 100 nM |
| CN1CCN(Cc2cc3nc(-c4cc(F)cc5[nH]ncc45)nc(N4CCOCC4)c3s2)CC1 | ≤ 100 nM |
| COCCN(C)C1CCCN(Cc2cc3nc(-c4cccc5[nH]ncc45)nc(N4CCOCC4)c3s2)C1 (stereo unspecified) | ≤ 100 nM |
| c1ccc(NC2CCN(Cc3cc4nc(-c5cccc6[nH]ncc56)nc(N5CCOCC5)c4s3)CC2)nc1 | ≤ 100 nM |
| O=C(N1CCOCC1)N1CCN(Cc2cc3nc(-c4cccc5[nH]ncc45)nc(N4CCOCC4)c3s2)CC1 | ≤ 100 nM |

| SMILES | IC50 |
| --- | --- |
| COCCN1[C@H](C)CN(Cc2cc3nc(-c4cccc5[nH]ncc45)nc(N4CCOCC4)c3s2)C[C@@H]1C | ≤ 100 nM |
| c1cc(-c2nc(N3CCOCC3)c3sc(CN4CCC(N5CCOCC5)CC4)cc3n2)c2cn[nH]c2c1 | ≤ 100 nM |
| Cc1cccc(CN2CCN(Cc3cc4nc(-c5cccc6[nH]ncc56)nc(N5CCOCC5)c4s3)CC2)n1 | ≤ 100 nM |
| COCCN(CC(F)(F)F)C1CCN(Cc2cc3nc(-c4cccc5[nH]ncc45)nc(N4CCOCC4)c3s2)CC1 | ≤ 100 nM |
| COCC1CN(Cc2cc3nc(-c4cccc5[nH]ncc45)nc(N4CCOCC4)c3s2)CCN1S(C)(=O)=O (stereo unspecified) | ≤ 100 nM |
| COCCN(C)C(=O)N1CCN(Cc2cc3nc(-c4cccc5[nH]ncc45)nc(N4CCOCC4)c3s2)CC1 | ≤ 100 nM |
| O=S(=O)(CCCN1CCOCC1)N1CCN(Cc2cc3nc(-c4cccc5[nH]ncc45)nc(N4CCOCC4)c3s2)CC1 | ≤ 100 nM |
| CN(C)C1CCN(Cc2cc3nc(-c4cccc5[nH]ccc45)nc(N4CCOCC4)c3s2)CC1 | ≤ 100 nM |
| OC(COc1ccccc1)CN1CCN(Cc2cc3nc(-c4cccc5[nH]ncc45)nc(N4CCOCC4)c3s2)CC1 (stereo unspecified) | ≤ 100 nM |
| CN(C)C(=O)CN1CCN(Cc2cc3nc(-c4cccc5[nH]ncc45)nc(N4CCOCC4)c3s2)CC1 | ≤ 100 nM |
| CNC(=O)C1CCN(Cc2cc3nc(-c4cccc5[nH]ncc45)nc(N4CCOCC4)c3s2)CC1 | ≤ 100 nM |
| CN1CCN(Cc2cc3nc(-c4cccc5[nH]ccc45)nc(N4CCOCC4)c3s2)CC1 | ≤ 100 nM |
| c1cc(-c2nc(N3CCOCC3)c3sc(CN4CCC(N5CCOCC5)CC4)cc3n2)c2cc[nH]c2c1 | ≤ 100 nM |
| CC(C)(CO)N1CCN(Cc2cc3nc(-c4cccc5[nH]ncc45)nc(N4CCOCC4)c3s2)CC1 | ≤ 100 nM |
| COCC1(N2CCN(Cc3cc4nc(-c5cccc6[nH]ncc56)nc(N5CCOCC5)c4s3)CC2)CC1 | ≤ 100 nM |
| CNC(=O)C1CCCN(Cc2cc3nc(-c4cccc5[nH]ncc45)nc(N4CCOCC4)c3s2)C1 (stereo unspecified) | ≤ 100 nM |
| O=C(N1CCOCC1)N1CCN(Cc2cc3nc(-c4cccc5[nH]ccc45)nc(N4CCOCC4)c3s2)CC1 | ≤ 100 nM |
| c1cc(-c2nc(N3CCOCC3)c3sc(CN4CCN(CC5CC5)CC4)cc3n2)c2cn[nH]c2c1 | ≤ 100 nM |
| CC(C)(C(N)=O)N1CCN(Cc2cc3nc(-c4cccc5[nH]ncc45)nc(N4CCOCC4)c3s2)CC1 | ≤ 100 nM |
| c1ccc(CN2CCN(Cc3cc4nc(-c5cccc6[nH]ncc56)nc(N5CCOCC5)c4s3)CC2)nc1 | ≤ 100 nM |
| CNC(=O)[C@H]1CCCN(Cc2cc3nc(-c4cccc5[nH]ncc45)nc(N4CCOCC4)c3s2)C1 | ≤ 100 nM |
| CC1CCCN(Cc2cc3nc(-c4cccc5[nH]ncc45)nc(N4CCOCC4)c3s2)C1 (stereo unspecified) | ≤ 100 nM |
| c1cc(-c2nc(N3CCOCC3)c3sc(CN4CCC(N5CCCCC5)CC4)cc3n2)c2cn[nH]c2c1 | ≤ 100 nM |
| CN1CCN(Cc2cc3nc(-c4cccc5nn(C)cc45)nc(N4CCOCC4)c3s2)CC1 | ≤ 100 nM |
| c1cc(-c2nc(N3CCOCC3)c3sc(CN4CCC(Cn5ccnc5)CC4)cc3n2)c2cn[nH]c2c1 | ≤ 100 nM |

The next lines start with the values.

| IC50 | SMILES |
| --- | --- |
| ≤ 100 nM | C[C@@H]1CN(Cc2cc3nc(-c4cccc5[nH]ncc45)nc(N4CCOCC4)c3s2)C[C@H](C)N1Cc1nccs1 |
| ≤ 100 nM | CC(C)(C(=O)N1CCCC1)N1CCN(Cc2cc3nc(-c4cccc5[nH]ncc45)nc(N4CCOCC4)c3s2)CC1 |
| ≤ 100 nM | COCCOC1CCN(Cc2cc3nc(-c4cccc5[nH]ncc45)nc(N4CCOCC4)c3s2)CC1 |
| ≤ 100 nM | c1cc(-c2nc(N3CCOCC3)c3sc(CN4CCN(Cc5cnc[nH]5)CC4)cc3n2)c2cn[nH]c2c1 |
| ≤ 100 nM | c1cc(-c2nc(N3CCOCC3)c3sc(CN4CCN(Cc5cscn5)CC4)cc3n2)c2cn[nH]c2c1 |
| ≤ 100 nM | CS(=O)(=O)N1CCN(Cc2cc3nc(-c4cccc5[nH]ccc45)nc(N4CCOCC4)c3s2)CC1 |
| ≤ 100 nM | [O-][n+]1cccc(CN2CCN(Cc3cc4nc(-c5cccc6[nH]ncc56)nc(N5CCOCC5)c4s3)CC2)c1 |
| ≤ 100 nM | COCCN(C)C1CCN(Cc2cc3nc(-c4cccc5[nH]ccc45)nc(N4CCOCC4)c3s2)CC1 |
| ≤ 100 nM | CN1CCN(Cc2cc3nc(-c4cccc5c4cnn5C)nc(N4CCOCC4)c3s2)CC1 |
| ≤ 100 nM | c1ccc(CC2CCN(Cc3cc4nc(-c5cccc6[nH]ncc56)nc(N5CCOCC5)c4s3)CC2)nc1 |
| ≤ 100 nM | CN(C)C(=O)N1CCN(Cc2cc3nc(-c4cccc5[nH]ccc45)nc(N4CCOCC4)c3s2)CC1 |
| ≤ 100 nM | c1cc(-c2nc(N3CCOCC3)c3sc(CN4CCC(CN5CCOCC5)CC4)cc3n2)c2cn[nH]c2c1 |
| ≤ 100 nM | NC(=O)C1CCN(Cc2cc3nc(-c4cccc5[nH]ncc45)nc(N4CCOCC4)c3s2)CC1 |
| ≤ 100 nM | CN(C)C(=O)CN1CCN(Cc2cc3nc(-c4cccc5[nH]ccc45)nc(N4CCOCC4)c3s2)CC1 |
| ≤ 100 nM | Cc1cc(CN2CCN(Cc3cc4nc(-c5cccc6[nH]ncc56)nc(N5CCOCC5)c4s3)CC2)no1 |
| ≤ 100 nM | CN(C)C(=O)N1CCN(Cc2cc3nc(-c4cccc5[nH]ncc45)nc(N4CCOCC4)c3s2)CC1 |
| ≤ 100 nM | c1ccc(OC2CCN(Cc3cc4nc(-c5cccc6[nH]ncc56)nc(N5CCOCC5)c4s3)CC2)nc1 |
| ≤ 100 nM | OC1(Cc2ccccn2)CCN(Cc2cc3nc(-c4cccc5[nH]ncc45)nc(N4CCOCC4)c3s2)CC1 |

| IC50 | SMILES |
| --- | --- |
| ≤ 100 nM | Cc1ccc(CN2CCN(Cc3cc4nc(-c5cccc6[nH]ncc56)nc(N5CCOCC5)c4s3)CC2)o1 |
| ≤ 100 nM | c1cc(-c2nc(N3CCOCC3)c3sc(CN4CCOCC4)cc3n2)c2cn[nH]c2c1 |
| ≤ 100 nM | COCCN(CC1CC1)C1CCN(Cc2cc3nc(-c4cccc5[nH]ncc45)nc(N4CCOCC4)c3s2)CC1 |
| ≤ 100 nM | CN(CCCS(C)(=O)=O)C1CCN(Cc2cc3nc(-c4cccc5[nH]ncc45)nc(N4CCOCC4)c3s2)CC1 |
| ≤ 100 nM | OC1(c2nccs2)CCN(Cc2cc3nc(-c4cccc5[nH]ncc45)nc(N4CCOCC4)c3s2)CC1 |
| ≤ 100 nM | c1cc(-c2nc(N3CCOCC3)c3sc(CN4CCN(Cc5ncc[nH]5)CC4)cc3n2)c2cn[nH]c2c1 |
| ≤ 100 nM | CC(C)(O)C1CCN(Cc2cc3nc(-c4cccc5[nH]ncc45)nc(N4CCOCC4)c3s2)CC1 |
| ≤ 100 nM | OCC1CCCN(Cc2cc3nc(-c4cccc5[nH]ncc45)nc(N4CCOCC4)c3s2)C1 (stereo unspecified) |
| ≤ 100 nM | O=C1CN(Cc2cc3nc(-c4cccc5[nH]ncc45)nc(N4CCOCC4)c3s2)CCN1CCO |
| ≤ 100 nM | COCCCS(=O)(=O)C1CCN(Cc2cc3nc(-c4cccc5[nH]ncc45)nc(N4CCOCC4)c3s2)CC1 |
| ≤ 100 nM | OCCN1CCN(Cc2cc3nc(-c4cccc5[nH]ccc45)nc(N4CCOCC4)c3s2)CC1 |
| ≤ 100 nM | C[C@@H]1CN(C)C[C@H](C)N1Cc1cc2nc(-c3cccc4[nH]ncc34)nc(N3CCOCC3)c2s1 |
| ≤ 100 nM | COCC1CCN(Cc2cc3nc(-c4cccc5[nH]ncc45)nc(N4CCOCC4)c3s2)CC1 |
| ≤ 100 nM | CNC(=O)[C@@H]1CCCN(Cc2cc3nc(-c4cccc5[nH]ncc45)nc(N4CCOCC4)c3s2)C1 |
| ≤ 100 nM | COCCN(C(C)C)C1CCN(Cc2cc3nc(-c4cccc5[nH]ncc45)nc(N4CCOCC4)c3s2)CC1 |
| ≤ 100 nM | OCCC1CCN(Cc2cc3nc(-c4cccc5[nH]ncc45)nc(N4CCOCC4)c3s2)CC1 |
| ≤ 100 nM | c1cc(-c2nc(N3CCOCC3)c3sc(CN4CCNCC4)cc3n2)c2cc[nH]c2c1 |
| ≤ 100 nM | COCCN(Cc1nccs1)C1CCN(Cc2cc3nc(-c4cccc5[nH]ncc45)nc(N4CCOCC4)c3s2)CC1 |
